{"source": "patent US9650428B2", "about": "“Methods and compositions for treating cancer” (Roger Williams Hospital, priority 2014, dated 2017)", "system": "U251MG glioma cells", "assay": "In vivo efficacy in athymic nude mice with subcutaneous U251MG glioma", "details": "tumor-bearing mice; TMZ alone orally 64 mg/kg/day for 4 days, no T cells (Group III)", "description": "The in vivo efficacy of the IL13E13K.R109K-2A-P140KMGMT construct was tested in mice using the viral particles generated as described in Example 2. Fifty athymic nude mice were injected subcutaneously (left flank) with U251MG glioma cells (40 mice; Groups I-IV) or PBS (10 mice). Four days after glioma implantation, 3 groups of mice (Groups I, II and III, 10 mice/group) were treated orally with TMZ (64 mg/kg/day by oral gavage) for 4 days. On the 5th day after glioma implantation, the 3 groups of mice that had been treated orally with TMZ were treated as follows: Group I: an intra-tumoral injection of the IL13E13K.R109KCAR-2A-P140KMGMT construct (TMZ-resistant); Group II: the IL13 IL13E13K.R109K construct with no MGMT (TMZ sensitive); Group III: treatment with PBS only (no injection of T cells). Group IV received no T cells or TMZ treatment. The mice were monitored for visual tumor growth, behavioral changes, and morbidity until day 90 after injection of the T cells at which time the mice were sacrificed as required by IACUC restrictions."}
{"compound": "Cn1nnc2c(C(N)=O)ncn2c1=O", "note": "[TMZ, temozolomide]", "values": [{"measurement": "median survival time", "result": 36, "unit": "days"}, {"measurement": "survival rate", "result": 20, "unit": "%"}]}
